In ChEMBL document CHEMBL1201862, “PubChem BioAssay data set” (2004):
The source made the active and inactive calls.

Key:
[1] = molecular target: T1, Rac GTPase-activating protein 1 (Homo sapiens, UniProt Q9H0H5); test: MgcRacGAP GTPase-activating activity inhibitors, confirmation, biochemical, ADP Hunter fluorescence, primary and confirmatory (AID 624330); type: functional
T1 sequence (Q9H0H5 whole entry): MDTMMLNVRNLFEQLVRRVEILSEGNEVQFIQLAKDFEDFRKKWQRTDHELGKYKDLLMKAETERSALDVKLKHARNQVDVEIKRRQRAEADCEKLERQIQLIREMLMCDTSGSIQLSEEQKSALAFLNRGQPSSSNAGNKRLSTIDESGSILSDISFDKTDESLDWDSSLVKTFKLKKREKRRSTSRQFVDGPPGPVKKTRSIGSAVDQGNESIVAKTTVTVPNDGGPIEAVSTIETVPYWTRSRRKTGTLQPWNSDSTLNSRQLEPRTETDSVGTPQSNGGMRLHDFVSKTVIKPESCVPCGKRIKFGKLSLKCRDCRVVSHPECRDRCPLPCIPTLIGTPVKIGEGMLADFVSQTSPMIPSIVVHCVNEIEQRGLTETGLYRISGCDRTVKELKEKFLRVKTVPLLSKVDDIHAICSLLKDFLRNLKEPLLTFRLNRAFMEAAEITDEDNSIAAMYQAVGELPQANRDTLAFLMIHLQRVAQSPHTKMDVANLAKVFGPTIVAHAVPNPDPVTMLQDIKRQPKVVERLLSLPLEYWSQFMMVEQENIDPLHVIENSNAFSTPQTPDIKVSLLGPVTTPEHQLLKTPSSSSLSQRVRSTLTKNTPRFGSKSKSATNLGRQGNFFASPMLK

Protein skinhead-1 = molecular target: T2, Protein skinhead-1 (Caenorhabditis elegans, UniProt P34707); type: functional
T2 sequence (P34707 whole entry): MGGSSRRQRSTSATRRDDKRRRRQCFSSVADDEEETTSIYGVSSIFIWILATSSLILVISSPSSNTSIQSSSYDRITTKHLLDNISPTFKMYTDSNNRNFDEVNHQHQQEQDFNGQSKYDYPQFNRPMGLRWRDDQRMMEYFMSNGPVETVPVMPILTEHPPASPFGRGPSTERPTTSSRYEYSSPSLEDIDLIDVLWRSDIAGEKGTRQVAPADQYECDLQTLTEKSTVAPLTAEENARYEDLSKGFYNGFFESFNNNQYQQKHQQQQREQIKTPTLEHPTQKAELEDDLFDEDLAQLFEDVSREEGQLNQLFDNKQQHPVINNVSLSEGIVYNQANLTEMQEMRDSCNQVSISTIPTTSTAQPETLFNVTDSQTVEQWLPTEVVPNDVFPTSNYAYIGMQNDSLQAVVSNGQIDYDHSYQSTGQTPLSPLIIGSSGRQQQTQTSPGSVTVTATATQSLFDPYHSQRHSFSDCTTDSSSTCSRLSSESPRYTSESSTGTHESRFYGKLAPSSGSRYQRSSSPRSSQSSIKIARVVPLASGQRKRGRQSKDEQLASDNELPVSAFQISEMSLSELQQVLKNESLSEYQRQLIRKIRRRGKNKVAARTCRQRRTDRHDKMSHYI

[2] = molecular target: T3, Replicative DNA helicase DnaB (Mycobacterium tuberculosis, UniProt P9WMR3); test: DnaB intein splicing inhibitors, dose response, biochemical, cell-free fluorescence (AID 449749); type: functional
T3 sequence (P9WMR3 whole entry): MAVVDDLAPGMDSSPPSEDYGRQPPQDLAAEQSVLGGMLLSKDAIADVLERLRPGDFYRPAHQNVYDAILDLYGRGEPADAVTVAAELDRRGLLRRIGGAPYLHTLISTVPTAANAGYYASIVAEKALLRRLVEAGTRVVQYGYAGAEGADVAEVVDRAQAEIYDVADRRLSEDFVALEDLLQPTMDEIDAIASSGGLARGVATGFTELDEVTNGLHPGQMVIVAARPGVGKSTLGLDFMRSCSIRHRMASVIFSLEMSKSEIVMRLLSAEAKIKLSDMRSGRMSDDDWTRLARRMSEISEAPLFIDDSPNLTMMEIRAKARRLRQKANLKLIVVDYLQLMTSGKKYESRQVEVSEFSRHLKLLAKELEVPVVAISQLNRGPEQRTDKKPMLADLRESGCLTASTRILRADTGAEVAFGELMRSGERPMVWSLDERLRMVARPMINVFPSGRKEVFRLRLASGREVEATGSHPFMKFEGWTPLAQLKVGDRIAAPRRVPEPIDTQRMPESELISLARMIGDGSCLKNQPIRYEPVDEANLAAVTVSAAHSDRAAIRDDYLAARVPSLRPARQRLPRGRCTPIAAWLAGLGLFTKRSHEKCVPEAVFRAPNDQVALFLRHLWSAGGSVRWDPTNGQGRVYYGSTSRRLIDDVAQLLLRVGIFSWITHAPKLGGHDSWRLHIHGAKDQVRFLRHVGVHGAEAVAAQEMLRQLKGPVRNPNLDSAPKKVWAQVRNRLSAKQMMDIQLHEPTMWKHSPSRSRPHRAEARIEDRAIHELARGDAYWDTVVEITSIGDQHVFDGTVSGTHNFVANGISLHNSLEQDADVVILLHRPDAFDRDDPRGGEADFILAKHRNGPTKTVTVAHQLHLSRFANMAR

Protein RecA = molecular target: T4, Protein RecA (Mycobacterium tuberculosis, UniProt P9WHJ3); test: Fluorescence Cell-Free Homogeneous Dose Retest to Identify Inhibitors of RecA-Intein Splicing Activity. [Related pubchem assays (depositor defined):AID2097, AID2223, AID489010, AID492950]; type: functional
T4 sequence (P9WHJ3 whole entry): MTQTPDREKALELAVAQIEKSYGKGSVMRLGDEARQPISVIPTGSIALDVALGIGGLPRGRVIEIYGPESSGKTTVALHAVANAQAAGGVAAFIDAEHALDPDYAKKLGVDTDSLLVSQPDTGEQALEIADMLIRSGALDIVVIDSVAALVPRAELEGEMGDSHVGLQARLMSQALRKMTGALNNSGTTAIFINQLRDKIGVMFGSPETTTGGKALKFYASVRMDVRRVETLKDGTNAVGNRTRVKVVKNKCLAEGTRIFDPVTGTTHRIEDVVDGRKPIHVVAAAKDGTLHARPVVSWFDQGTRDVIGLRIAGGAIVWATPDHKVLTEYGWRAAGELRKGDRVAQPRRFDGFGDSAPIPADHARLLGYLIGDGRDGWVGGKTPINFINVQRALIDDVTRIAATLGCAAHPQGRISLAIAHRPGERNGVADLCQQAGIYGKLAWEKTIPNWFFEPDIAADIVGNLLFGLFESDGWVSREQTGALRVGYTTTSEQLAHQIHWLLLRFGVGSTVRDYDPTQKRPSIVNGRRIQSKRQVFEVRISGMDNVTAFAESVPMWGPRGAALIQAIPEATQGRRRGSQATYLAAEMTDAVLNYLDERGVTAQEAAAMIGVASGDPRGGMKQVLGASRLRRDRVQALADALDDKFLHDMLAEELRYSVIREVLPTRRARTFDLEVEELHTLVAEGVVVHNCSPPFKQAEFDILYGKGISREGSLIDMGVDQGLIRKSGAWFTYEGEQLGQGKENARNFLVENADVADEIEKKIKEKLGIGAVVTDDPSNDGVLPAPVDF

[3] = molecular target: T5, Heat shock factor protein 1 (Mus musculus, UniProt P38532); test: HSF1 potentiators in luciferase reporter cells, confirmation, cell-based, NIH3T3, luminescence, dose retest (AID 435004); type: functional;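 further: stress induced by proteasome inhibitor MG132 added 30 min after compound; luciferase reporter driven by HSF1 response element in NIH3T3 cells; actives raise luminescence as potentiators of the MG132 stress response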
T5 sequence (P38532 whole entry): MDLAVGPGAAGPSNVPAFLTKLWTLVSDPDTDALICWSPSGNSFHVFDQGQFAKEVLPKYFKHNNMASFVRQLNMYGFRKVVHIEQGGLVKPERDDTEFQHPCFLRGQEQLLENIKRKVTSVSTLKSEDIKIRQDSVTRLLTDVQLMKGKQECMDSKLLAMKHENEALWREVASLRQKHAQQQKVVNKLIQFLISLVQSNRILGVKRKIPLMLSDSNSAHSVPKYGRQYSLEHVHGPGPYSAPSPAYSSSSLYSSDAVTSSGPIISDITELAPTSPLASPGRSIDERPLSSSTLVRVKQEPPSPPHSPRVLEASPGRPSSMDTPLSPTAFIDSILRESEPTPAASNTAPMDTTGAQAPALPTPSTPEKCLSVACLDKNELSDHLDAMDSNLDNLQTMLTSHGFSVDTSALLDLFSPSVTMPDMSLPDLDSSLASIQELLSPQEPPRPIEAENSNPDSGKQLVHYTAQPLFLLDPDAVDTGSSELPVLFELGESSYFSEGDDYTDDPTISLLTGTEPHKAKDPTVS

[4] = molecular target: FAD-linked sulfhydryl oxidase ALR (Homo sapiens, UniProt P55789); test: inhibitors of human ALR sulfhydryl oxidase, dose response, biochemical, H2O2 detection, luminescence, cherry-pick (AID 493248)
Large T antigen = Large T antigen (Simian virus 40, UniProt P03070); type: functional, Betapolyomavirus macacae;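 further: Confirmatory-stage PubChem screen for compounds that inhibit SV40 T antigen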
[5] = molecular target: T6, Corticotropin-releasing factor receptor 2/Corticotropin-releasing factor-binding protein (Homo sapiens, UniProt P24387+Q13324); test: activators of CRF receptor 2 with binding protein – uHTS hits, confirmation (AID 602473); type: functional; conditions: read-out: EC50_Mean
T6 sequence (Q13324 whole entry): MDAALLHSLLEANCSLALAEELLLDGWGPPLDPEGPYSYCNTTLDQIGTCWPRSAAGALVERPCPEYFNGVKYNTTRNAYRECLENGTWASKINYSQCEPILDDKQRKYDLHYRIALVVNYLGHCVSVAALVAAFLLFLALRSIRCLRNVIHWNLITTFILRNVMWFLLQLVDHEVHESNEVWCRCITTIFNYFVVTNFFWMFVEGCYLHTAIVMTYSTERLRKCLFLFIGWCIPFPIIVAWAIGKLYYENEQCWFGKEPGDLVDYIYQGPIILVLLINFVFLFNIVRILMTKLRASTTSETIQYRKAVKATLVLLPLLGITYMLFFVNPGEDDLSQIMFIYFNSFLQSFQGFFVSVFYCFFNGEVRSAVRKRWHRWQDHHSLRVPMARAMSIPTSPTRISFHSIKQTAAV
T6 sequence (P24387 whole entry): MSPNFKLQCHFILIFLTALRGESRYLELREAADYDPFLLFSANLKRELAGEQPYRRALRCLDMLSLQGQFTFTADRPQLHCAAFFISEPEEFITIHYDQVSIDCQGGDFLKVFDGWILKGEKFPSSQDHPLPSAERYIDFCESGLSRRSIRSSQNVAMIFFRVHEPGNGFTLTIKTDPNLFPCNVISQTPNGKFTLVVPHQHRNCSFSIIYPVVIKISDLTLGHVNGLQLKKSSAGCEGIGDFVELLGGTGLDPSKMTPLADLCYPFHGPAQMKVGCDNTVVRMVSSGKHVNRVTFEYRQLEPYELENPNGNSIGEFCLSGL

BJ [6] = test: cells; type: functional, cell-based; conditions: Homo sapiens
INS1 = test: beta cell apoptosis inhibitors, cytokine rescue, dose response, luminescence, retest (AID 449756); type: functional, cell-based; conditions: Rattus norvegicus;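 further: cell death triggered by IL-1 beta plus TNF-alpha plus IFN-gamma mixture; protective hits raise ATP signal compared with cytokine alone wells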
BJ [7] = test: cytotoxicity toward BJ-TERT fibroblasts, dose response, cell-based, RAS-independent, luminescence (AID 1933); type: functional; conditions: Homo sapiens
[8] = cytotoxicity toward DRD oncogenic fibroblasts, dose response, cell-based, non-viral oncogenic, luminescence (AID 1934); type: functional; conditions: Homo sapiens
BJ [9] = test: cytotoxicity toward BJ-TERT-LT-ST fibroblasts, dose response, cell-based, RAS-independent, luminescence (AID 1935); type: functional; conditions: Homo sapiens;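 further: BJ fibroblasts immortalized with TERT plus LT and ST oncogenes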

Large T antigen, sequence (P03070 whole entry): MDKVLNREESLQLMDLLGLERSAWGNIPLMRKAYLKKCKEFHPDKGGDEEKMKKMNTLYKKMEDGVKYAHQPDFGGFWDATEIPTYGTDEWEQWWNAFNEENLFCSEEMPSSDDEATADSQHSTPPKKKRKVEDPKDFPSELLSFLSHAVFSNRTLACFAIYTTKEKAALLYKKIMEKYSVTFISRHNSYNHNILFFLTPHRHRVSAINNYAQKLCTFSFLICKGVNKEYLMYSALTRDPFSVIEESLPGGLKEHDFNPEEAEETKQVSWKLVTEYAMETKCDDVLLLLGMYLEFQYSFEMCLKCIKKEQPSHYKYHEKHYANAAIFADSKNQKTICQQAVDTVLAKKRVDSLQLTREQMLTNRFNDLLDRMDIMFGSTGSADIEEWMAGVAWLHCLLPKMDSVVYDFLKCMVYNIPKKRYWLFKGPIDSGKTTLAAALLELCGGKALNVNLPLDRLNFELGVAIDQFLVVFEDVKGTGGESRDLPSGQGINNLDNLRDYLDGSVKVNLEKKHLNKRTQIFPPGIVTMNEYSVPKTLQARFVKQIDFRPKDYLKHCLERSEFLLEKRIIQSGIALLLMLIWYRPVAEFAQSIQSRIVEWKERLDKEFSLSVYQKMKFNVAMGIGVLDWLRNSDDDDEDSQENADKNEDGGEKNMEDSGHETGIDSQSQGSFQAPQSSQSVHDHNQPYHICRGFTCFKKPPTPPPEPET
FAD-linked sulfhydryl oxidase ALR, sequence (P55789 whole entry): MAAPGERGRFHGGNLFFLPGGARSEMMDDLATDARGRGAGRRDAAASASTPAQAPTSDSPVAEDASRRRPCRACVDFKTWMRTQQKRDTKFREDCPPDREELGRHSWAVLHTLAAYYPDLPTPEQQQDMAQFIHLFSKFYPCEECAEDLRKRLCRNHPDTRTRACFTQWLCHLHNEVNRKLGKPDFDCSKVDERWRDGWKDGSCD

Row | SMILES | IC50 [1] | AC50 [2] | EC50 (Protein RecA) | also measured
1 | COc1ccc(CN2CCN(C(=O)CC(C)C)CC2)cc1OC | 161 µM (active) |  |  | 
2 | FC(F)(F)c1ccc(-c2csc(-c3ccno3)n2)cc1 |  |  |  | IC50 (Protein skinhead-1): 23.1 µM (active)
3 | CCOCCn1c(COc2ccccc2)nc2ccccc21 |  |  |  | IC50 (Protein skinhead-1): > 100 µM (inactive)
4 | O=C(NC1C(=O)NNC1c1ccccc1)c1ccccc1 (stereo not given) |  | 8.8 µM (active) | 4.83 µM (active) | EC50 [3]: 246 µM (active)
5 | NC(CSS(=O)(=O)O)=NCCC12CC3CC(CC(O)(C3)C1)C2 | 142 µM (active) |  |  | 
6 | Cc1nn(-c2cccc(Cl)c2)c2c1C(c1ccncc1)C(C#N)=C(N)O2 (stereo not given) |  | 9.1 µM (active) | 7.71 µM (active) | EC50 [3]: > 260 µM (inactive)
7 | CN(C)c1ccc(NC(=O)c2ccncc2)c2ccccc12 |  | 66.5 µM (active) | 45.4 µM (active) | 
8 | O=C(N/N=C/c1ccc(N2CCOCC2)s1)c1ccc(O)cc1 | 23.5 µM (active) |  |  | 
9 | COc1cc(/C=N/NC(=O)CCn2nnc3ccccc32)ccc1O | 58.7 µM (active) |  |  | AC50 [4]: 0.236 µM (active); IC50 (Large T antigen): 8.58 µM (active)
10 | CC(NS(=O)(=O)c1ccc(Cl)cc1)C(=O)OCC(=O)Nc1ccc(N(C)C)cc1 (stereo not given) | 65.1 µM (active) |  |  | 
11 | COc1cc(/C=N/NC(=O)c2nc(C)cc(C)n2)ccc1O | 35.3 µM (active) |  |  | EC50 [5]: > 53 µM (inactive); IC50 (Large T antigen): 39.5 µM (active)
12 | Cc1ccc(C/N=C/c2[nH]c3ccc(Br)c(Cl)c3c2O)cc1 |  | > 380 µM (inactive) | 1.43 µM (active) | 
13 | COC(=O)CCSc1cc(NCCOC(C)=O)c([N+](=O)[O-])c2nonc12 |  | 37.5 µM (active) | 4.63 µM (active) | 
14 | COc1ccc(NC2CCCN(C(=O)c3ccc(C)c(N4CCNC4=O)c3)C2)cc1 (stereo not given) | 129 µM (active) |  |  | 
15 | O=C(c1c[nH]c(C(=O)C(Cl)(Cl)Cl)c1)c1ccccc1F |  | 12.6 µM (active) | 7.39 µM (active) | 
16 | NSc1nc(N)c2nc(-c3ccccc3)c(-c3ccccc3)nc2n1 | 99.2 µM (active) |  |  | 
17 | COc1ccc(CN2C(=O)NC(=O)/C(=C\NNC(=O)c3ccccc3O)C2=O)cc1 |  | 2.69 µM (active) | 32.2 µM (active) | 
18 | Cc1ccc(CSC(Nc2ccc(F)cc2)=C(C#N)C#N)cc1 |  |  |  | EC50 (BJ [6]): > 150 µM (not active); AC50 (INS1): 3.19 µM (active); EC50 [5]: > 53 µM (inactive); EC50 (BJ [7]): 14.1 µM (active); EC50 [8]: 76.4 µM (active); EC50 (BJ [9]): > 75 µM (not active)
19 | COc1ccc(OC)c(C(c2c(C)n[nH]c2O)c2c(C)n[nH]c2O)c1 |  | 0.296 µM (active) | 0.211 µM (active) | 
20 | CC(C)(C)NC(=O)C(c1cccs1)N(CC1CCCO1)C(=O)c1ccc(-c2ccccc2)[nH]1 (stereo not given) |  | 37.9 µM (active) | 169 µM (active) | 
